These results are taken from patent US8193191B2, “Urotensin II receptor antagonists” (Janssen Pharmaceutica N.V., priority 2006, dated 2012).

The term Ki denotes a measure of affinity in units of concentration, obtained from inhibition or displacement. As usually defined, the IC50 is the concentration that inhibits the measured activity by half. A word on the EC50: it is the concentration needed to bring the measured effect to its halfway point.

Test [1] concerns the target T1, endogenous human UII receptor (Homo sapiens, UniProt Q9UKP6).
T1 sequence (Q9UKP6 1-389): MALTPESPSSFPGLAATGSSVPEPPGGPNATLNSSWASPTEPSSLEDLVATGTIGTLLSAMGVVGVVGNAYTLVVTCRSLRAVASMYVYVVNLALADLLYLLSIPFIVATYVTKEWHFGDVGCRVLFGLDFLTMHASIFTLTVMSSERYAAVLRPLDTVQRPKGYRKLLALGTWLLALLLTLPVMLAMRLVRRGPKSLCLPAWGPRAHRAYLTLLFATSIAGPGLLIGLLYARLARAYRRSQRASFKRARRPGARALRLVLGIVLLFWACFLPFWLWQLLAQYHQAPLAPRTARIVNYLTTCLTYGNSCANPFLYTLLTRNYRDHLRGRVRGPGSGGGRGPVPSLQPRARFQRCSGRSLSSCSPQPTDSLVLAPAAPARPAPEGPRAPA
Briefly: Human Radioligand Binding Assay ((^125I)-U-II binding to human skeletal muscle myoblasts).

Test [2] deals with T2, rat GPR14 (U-II receptor) (Rattus norvegicus, UniProt P49684).
T2 construct: expressed in transfected cells
T2 sequence (P49684 1-386): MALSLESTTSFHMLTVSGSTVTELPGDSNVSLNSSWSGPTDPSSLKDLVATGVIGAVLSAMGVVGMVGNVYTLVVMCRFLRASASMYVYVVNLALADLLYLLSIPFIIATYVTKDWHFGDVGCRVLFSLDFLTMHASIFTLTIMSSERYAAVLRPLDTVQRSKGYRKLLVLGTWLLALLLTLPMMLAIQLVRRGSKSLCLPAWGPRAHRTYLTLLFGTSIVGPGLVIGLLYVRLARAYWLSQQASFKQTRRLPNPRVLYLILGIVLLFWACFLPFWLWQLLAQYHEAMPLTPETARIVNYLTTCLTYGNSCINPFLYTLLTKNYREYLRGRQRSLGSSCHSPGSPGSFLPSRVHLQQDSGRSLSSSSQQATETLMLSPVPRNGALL
Briefly: Rat UII Calcium Mobilization FLIPR Assay. As to conditions: average value for the compound tested; read-out: Rat UII FLIPR Average IC50. The class given is cell-based. In short, it runs like this:
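CHO cells stably expressing rat U-II receptor, seeded 24 h before assay, were loaded with FLIPR calcium dye in HBSS/20 mM HEPES/0.1% BSA/2.5 mM probenecid, pH 7.4, for 1 h at 37° C. Calcium mobilization then read by FLIPR at 23° C.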
(In general: A change in cytosolic calcium serves as a functional read-out for many receptors and channels.)

The target in test [3] is T3, Human UII receptor, 6D9 human rhabdomyosarcoma cells (Homo sapiens, UniProt Q9UKP6).
T3 construct: 6D9: isolated by dilution subcloning of RMS13 cells, ATCC® Number: CRL-2061; host or cells: 6D9 human rhabdomyosarcoma cells (subclone of RMS13)
T3 sequence (Q9UKP6 1-389): T1 sequence (Q9UKP6 1-389)
Briefly: Human UII Calcium Mobilization Assay. Type of test: cell-based. The settings on record: average value, FLIPR TETRA, read-out: Human UII Ca^+ Mobilization Average IC50. In short, it runs like this:
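6D9 rhabdomyosarcoma cells loaded 45 min at 37° C with calcium dye (1.25 mM probenecid, 0.01% FBS, HBSS/20 mM HEPES). Antagonist and U-II agonist added at room temperature; FLIPR fluorescence read over 4 min; EC50/IC50 fitted. DMSO ≤0.1% final.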

The subject of test [4] is isolated arterial rings of humans. As to conditions: read-out: EC50 of contraction; cited from earlier work.
Test [5] relates to isolated arterial rings of rats. As to conditions: read-out: EC50 of contraction; cited from earlier work.
The target in test [6] is T2, rat GPR14 (U-II receptor). As to conditions: agonist peptide, CHO cells transfected with rat GPR14; read-out: FLIPR EC50; cited from earlier work.
For a further test, the target named is T4, rU-II receptor (Rattus norvegicus, UniProt P49684).
T4 sequence (P49684 1-386): T2 sequence (P49684 1-386)
As to conditions: agonist peptide; cited from earlier work.

Some results are limits rather than exact numbers.

As to `COc1ccc([C@@H](CCNS(=O)(=O)O)N2C(=O)c3cccc(N4CCN([C@H](C)c5ccccc5)CC4)c3C2=O)cc1OC` [Cpd 220, (R)-(3-(3,4-dimethoxy-phenyl)-3-{1,3-dioxo-4-[4-(1R)-(1-phenyl-ethyl)-piperazin-1-yl]-1,3-dihydro-isoindol-2-yl}-propyl)-sulfamic acid], the affinity in test [1], expressed as Ki, was 11 nM. For the same compound, the results for the IC50 in test [2] and in test [3] were 23 nM and 170 nM, respectively.

Turning to `COc1ccc([C@@H](CCNC(=O)c2ccncc2)N2C(=O)c3cccc(N4CCN([C@H](C)c5ccccc5)CC4)c3C2=O)cc1OC` [Cpd 221, (R)-N-(3-(3,4-dimethoxy-phenyl)-3-{1,3-dioxo-4-[4-(1R)-(1-phenyl-ethyl)-piperazin-1-yl]-1,3-dihydro-isoindol-2-yl}-propyl)-isonicotinamide], the Ki in test [1] was 72 nM. Also, the IC50 worked out at 15 nM in test [2] and 910 nM in test [3].

Regarding `COc1ccc([C@@H](CCNS(=O)(=O)Cc2ccccc2)N2C(=O)c3cccc(N4CCN([C@H](C)c5ccccc5)CC4)c3C2=O)cc1OC` [Cpd 222, (R)-N-(3-(3,4-dimethoxy-phenyl)-3-{1,3-dioxo-4-[4-(1R)-(1-phenyl-ethyl)-piperazin-1-yl]-1,3-dihydro-isoindol-2-yl}-propyl)-C-phenyl-methanesulfonamide], the Ki in test [1] was determined as 140 nM. Also, the IC50 in test [2] was 25 nM; in test [3], 1500 nM.

`COc1ccc([C@@H](CCNS(=O)(=O)c2c(C)n[nH]c2C)N2C(=O)c3cccc(N4CCN([C@H](C)c5ccccc5)CC4)c3C2=O)cc1OC` [Cpd 223, (R)-3,5-dimethyl-1H-pyrazole-4-sulfonic acid (3-(3,4-dimethoxy-phenyl)-3-{1,3-dioxo-4-[4-(1R)-(1-phenyl-ethyl)-piperazin-1-yl]-1,3-dihydro-isoindol-2-yl}-propyl)-amide]: the affinity in test [1] corresponds to a Ki of 120 nM. For the same compound, the IC50 was determined as 12 nM in test [2] and 240 nM in test [3].

`COc1ccc([C@@H](CCCNS(=O)(=O)c2cccs2)N2C(=O)c3cccc(OCCCN(C)C)c3C2=O)cc1OC` [Cpd 224, (R)-thiophene-2-sulfonic acid {4-(3,4-dimethoxy-phenyl)-4-[4-(3-dimethylamino-propoxy)-1,3-dioxo-1,3-dihydro-isoindol-2-yl]-butyl}-amide] gave a Ki in test [1] of over 300 nM. The IC50 in test [2] is 340 nM; in test [3], 2000 nM.

The compound `COc1cc(Br)c(CN2C(=O)c3cccc(N4CCN([C@H](C)c5ccccc5)CC4)c3C2=O)cc1OC` [Cpd 225, 2-(2-bromo-4,5-dimethoxy-benzyl)-4-[4-(1R)-(1-phenyl-ethyl)-piperazin-1-yl]-isoindole-1,3-dione] showed an inhibition constant Ki in test [1] of over 300 nM. In addition, the IC50 in test [2] was 1500 nM; in test [3], over 10000 nM.

`COc1ccc(CN2C(=O)c3ccc(N4CCN([C@H](C)c5ccccc5)CC4)cc3C2=O)cc1OC` [Cpd 226, 2-(3,4-dimethoxy-benzyl)-5-[4-(1R)-(1-phenyl-ethyl)-piperazin-1-yl]-isoindole-1,3-dione]: the Ki in test [1] was over 300 nM. Moreover, the IC50 in test [2] was 10000 nM; in test [3], over 10000 nM.

In turn, `CCN1CCN(c2cccc3c2C(=O)N([C@H](CCCOCc2c(F)cccc2F)c2ccc(OC)c(OC)c2)C3=O)CC1` [Cpd 227, (R)-2-[4-(2,6-difluoro-benzyloxy)-1-(3,4-dimethoxy-phenyl)-butyl]-4-(4-ethyl-piperazin-1-yl)-isoindole-1,3-dione] showed a Ki in test [1] of over 300 nM. Moreover, the figures for the IC50 in test [2] and in test [3] were 160 nM and 2900 nM, respectively.

In turn, `COc1ccc([C@@H](CCCN(C)S(=O)(=O)O)N2C(=O)c3cccc(N4CCN([C@H](C)c5ccccc5)CC4)c3C2=O)cc1OC` [Cpd 228, (R)-(4-(3,4-dimethoxy-phenyl)-4-{1,3-dioxo-4-[4-(1R)-(1-phenyl-ethyl)-piperazin-1-yl]-1,3-dihydro-isoindol-2-yl}-butyl)-methyl-sulfamic acid] registered a Ki in test [1] of 25 nM. The IC50 stood at 49 nM in test [2] and 780 nM in test [3].

Take `COc1ccc([C@@H](CCCNS(=O)(=O)c2cccs2)N2C(=O)c3cccc(OCCN(C)C)c3C2=O)cc1OC` [Cpd 229, (R)-thiophene-2-sulfonic acid {4-(3,4-dimethoxy-phenyl)-4-[4-(2-dimethylamino-ethoxy)-1,3-dioxo-1,3-dihydro-isoindol-2-yl]-butyl}-amide]: in test [1], the Ki amounted to 320 nM. Besides, the IC50 in test [2] is over 100 nM; in test [3], 1700 nM.

In turn, `CCN1CCN(c2cccc3c2C(=O)N(C(c2cccc(NCc4ccccc4)c2)c2ccc(OC)c(OC)c2)C3=O)CC1` (stereo not shown) [Cpd 230, 2-[(3-benzylamino-phenyl)-(3,4-dimethoxy-phenyl)-methyl]-4-(4-ethyl-piperazin-1-yl)-isoindole-1,3-dione] returned a Ki in test [1] of over 300 nM. The IC50 is 290 nM in test [2] and 1900 nM in test [3].

Compound `CCN1CCN(c2cccc3c2C(=O)N(C(c2cccc(NS(=O)(=O)O)c2)c2ccc(OC)c(OC)c2)C3=O)CC1` (stereo not shown) [Cpd 231, (3-{(3,4-dimethoxy-phenyl)-[4-(4-ethyl-piperazin-1-yl)-1,3-dioxo-1,3-dihydro-isoindol-2-yl]-methyl}-phenyl)-sulfamic acid] returned a Ki in test [1] of 511 nM. The IC50 is 680 nM in test [2] and 3400 nM in test [3].

In test [1], `CCN1CCN(c2cccc3c2C(=O)N(C(CC2CCN(Cc4ccccc4)CC2)c2ccc(OC)c(OC)c2)C3=O)CC1` (stereo not shown) [Cpd 232, 2-[2-(1-benzyl-piperidin-4-yl)-1-(3,4-dimethoxy-phenyl)-ethyl]-4-(4-ethyl-piperazin-1-yl)-isoindole-1,3-dione] came in with a Ki of over 300 nM. For the same compound, the IC50 in test [2] was 410 nM; in test [3], 4100 nM.

In test [1], `CCN1CCN(c2cccc3c2C(=O)N(C(CC2CCN(S(=O)(=O)O)CC2)c2ccc(OC)c(OC)c2)C3=O)CC1` (stereo not shown) [Cpd 233, 4-{2-(3,4-dimethoxy-phenyl)-2-[4-(4-ethyl-piperazin-1-yl)-1,3-dioxo-1,3-dihydro-isoindol-2-yl]-ethyl}-piperidine-1-sulfonic acid] showed a Ki of 57 nM. Moreover, the values for the IC50 in test [2] and in test [3] were 660 nM and 770 nM, respectively.

The compound `CCN1CCN(c2cccc3c2C(=O)N(C(CC2CCN(S(=O)(=O)c4cccs4)CC2)c2ccc(OC)c(OC)c2)C3=O)CC1` (stereo not shown) [Cpd 234, 2-{1-(3,4-dimethoxy-phenyl)-2-[1-(thiophene-2-sulfonyl)-piperidin-4-yl]-ethyl}-4-(4-ethyl-piperazin-1-yl)-isoindole-1,3-dione] yielded a Ki in test [1] of 280 nM. Moreover, the IC50 in test [2] was found to be 51 nM; in test [3], 1700 nM.

Turning to “AGTAD-cyclo(CFWKYC)—V [Goby U-II, Urotensin-II isolated from the urophysis of the goby fish (Gillichthys mirabilis) as a 12-mer]”, the EC50 in test [4] and in test [5] was under 1 nM throughout.

Consider “Acetyl-cyclic[Cys-Phe-Trp-Lys-(2-Nal)-Cys]-NH2 [(Ac)—CFWK(2-NaI)C—NH2, agonist cyclic peptide used at 1 nM to induce Ca2+ mobilization in the rat UII FLIPR assay]”, for which the EC50 in test [6] was 0.54 ± 0.2 nM. The Ki on rU-II receptor was 0.12 ± 0.05 nM.
